Assay results: patent US12492173B2, “Herbicidal substituted N-tetrazolyl aryl carboxamides” (Bayer Aktiengesellschaft, priority 2019, dated 2025)

Legend:
Type in all cases: in vivo
Avena fatua = test: Post-emergence herbicidal action, AVEFA; set-up: key: % herbicidal action vs untreated; 100 = plants died, 0 = like control
Summary of the method: (§1)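 Greenhouse weeds grown in sandy loam were sprayed at the one-leaf stage, 2–3 weeks after sowing, with WP or EC formulations at 600–800 l/ha water plus 0.2% wetting agent. Damage scored visually about 3 weeks later, in percent against untreated controls (100% = plants dead).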

Polygonum convolvulus = test: Post-emergence herbicidal action, POLCO
Summary of the method: as §1

Echinochloa crus-galli = test: Pre-emergence herbicidal action, ECHCG; set-up: key to Herbicidal action against ECHCG: % activity: 100 = plants have died, 0 = like control plants; conditions: for herbicidal activity ECHCG: scored visually after 3 weeks vs untreated controls (100% = plants have died)
Summary of the method: (§2)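 Sown pots (sandy loam) sprayed pre-emergence → greenhouse → visual rating at 3 weeks; % activity vs untreated control, 100% = dead.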

Veronica persica = test: Post-emergence herbicidal action, VERPE; set-up: key: % herbicidal action vs untreated; 100 = plants died, 0 = like control
Summary of the method: as §1

Abutilon theophrasti = test: Pre-emergence herbicidal action, ABUTH; conditions: dosage 320 g/ha, scored visually after 3 weeks vs untreated controls (100% = plants have died)
Summary of the method: as §2

Matricaria inodora = test: Post-emergence herbicidal action, MATIN; set-up: key: % herbicidal action vs untreated; 100 = plants died, 0 = like control
Summary of the method: as §1

[1] = comparative experiment, post-emergence, 5 g of a.i./ha

| SMILES | herbicidal activity ECHCG (Echinochloa crus-galli; dosage 320 g/ha) [%] | herbicidal activity ABUTH (Abutilon theophrasti) [%] | herbicidal action AVEFA (Avena fatua; Dosage 80 g/ha) | herbicidal action POLCO (Polygonum convolvulus; Dosage 80 g/ha) | herbicidal action VERPE (Veronica persica; Dosage 80 g/ha) | herbicidal action MATIN (Matricaria inodora; Dosage 80 g/ha) | further results |
| --- | --- | --- | --- | --- | --- | --- | --- |
| Cn1nnnc1NC(=O)c1ccc(C(F)(F)F)c(C[S+](C)[O-])c1Cl (racemic) [Example 1-297] | 100 | 100 |  |  |  |  | herbicidal action AVEFA (Avena fatua; post-emergence, dosage 80 g/ha): 100%; herbicidal action POLCO (Polygonum convolvulus; post-emergence, dosage 80 g/ha): 80%; herbicidal action VERPE (Veronica persica; post-emergence, dosage 80 g/ha): 100%; herbicidal action MATIN (Matricaria inodora; post-emergence, dosage 80 g/ha): 100% |
| Cc1c(C(=O)Nc2nnnn2C)ccc(C(F)(F)F)c1C[S+](C)[O-] (stereo not drawn) [Example 1-84] | 100 | 100 |  |  |  |  | herbicidal action AVEFA (Avena fatua; post-emergence, dosage 80 g/ha): 90%; herbicidal action VERPE (Veronica persica; post-emergence, dosage 80 g/ha): 100%; herbicidal action MATIN (Matricaria inodora; post-emergence, dosage 80 g/ha): 100% |
| Cc1c(C(=O)Nc2nnnn2C)ccc(C(F)(F)F)c1CS(C)(=O)=O [Example 1-85] | 100 | 100 | 80 | 80 | 100 | 100 |  |
| CCSCc1c(C(F)(F)F)ccc(C(=O)Nc2nnnn2C)c1C [Example 1-86] | 100 | 100 |  |  |  |  | herbicidal action AVEFA (Avena fatua; post-emergence, dosage 80 g/ha): 100%; herbicidal action POLCO (Polygonum convolvulus; post-emergence, dosage 80 g/ha): 80%; herbicidal action VERPE (Veronica persica; post-emergence, dosage 80 g/ha): 90%; herbicidal action MATIN (Matricaria inodora; post-emergence, dosage 80 g/ha): 100% |
| CSCc1c(C(F)F)ccc(C(=O)Nc2nnnn2C)c1C [Example 1-107, 4-(difluoromethyl)-2-methyl-3-[(methylsulfanyl)methyl]-N-(1-methyl-1H-tetrazol-5-yl)benzamide] | 100 | 100 | 80 | 90 | 100 | 90 |  |
| Cc1c(C(=O)Nc2nnnn2C)ccc(C(F)F)c1CS(C)(=O)=O [Example 1-109] | 90 | 100 |  |  | 100 | 100 |  |
| COc1c(C(=O)Nc2nnnn2C)ccc(C(F)(F)F)c1CSC [Example 1-134] | 100 | 100 | 90 | 90 | 100 | 100 | Herbicidal action against POLCO (Polygonum convolvulus; post-emergence, dosage 80 g/ha): 80; Herbicidal action against VERPE (Veronica persica; [1]): 100; Herbicidal action against VERPE (Veronica persica; post-emergence, dosage 80 g/ha): 100; Herbicidal action against MATIN (Matricaria inodora; [1]): 90; Herbicidal action against MATIN (Matricaria inodora; post-emergence, dosage 80 g/ha): 100 |
| CSCc1c(C(F)(F)F)ccc(C(=O)Nc2nnnn2C)c1SC [Example 1-161] | 100 | 100 | 100 |  | 100 | 100 |  |
| CCSCc1c(C(F)F)ccc(C(=O)Nc2nnnn2C)c1SCC [Example 1-191] | 100 | 100 | 80 | 90 | 100 | 90 |  |
| CSCc1c(C(F)(F)F)ccc(C(=O)Nc2nnnn2C)c1F [Example 1-242] | 100 | 100 | 80 |  | 100 | 90 |  |
| Cn1nnnc1NC(=O)c1ccc(C(F)(F)F)c(C[S+](C)[O-])c1F (stereo not drawn) [Example 1-243] | 100 | 100 | 80 |  | 100 | 100 |  |
| Cn1nnnc1NC(=O)c1ccc(C(F)(F)F)c(CS(C)(=O)=O)c1F [Example 1-244] | 100 | 100 |  |  | 100 | 100 |  |
| Cc1ccc(C(=O)Nc2nnnn2C)c(Cl)c1CS(C)(=O)=O [Example 1-289] | 90 | 90 |  |  | 100 | 100 |  |
| CSCc1c(C(F)(F)F)ccc(C(=O)Nc2nnnn2C)c1Cl [Example 1-296] | 100 | 100 |  |  |  |  | herbicidal action AVEFA (Avena fatua; post-emergence, dosage 80 g/ha): 90%; herbicidal action VERPE (Veronica persica; post-emergence, dosage 80 g/ha): 100%; herbicidal action MATIN (Matricaria inodora; post-emergence, dosage 80 g/ha): 100% |
| Cn1nnnc1NC(=O)c1ccc(C(F)(F)F)c(CS(C)(=O)=O)c1Cl [Example 1-298] | 100 | 100 |  |  |  |  | Herbicidal action against AVEFA (Avena fatua; [1]): 60; herbicidal action AVEFA (Avena fatua; post-emergence, dosage 80 g/ha): 100%; Herbicidal action against POLCO (Polygonum convolvulus; [1]): 60; herbicidal action POLCO (Polygonum convolvulus; post-emergence, dosage 80 g/ha): 90%; Herbicidal action against VERPE (Veronica persica; [1]): 90; herbicidal action VERPE (Veronica persica; post-emergence, dosage 80 g/ha): 100%; Herbicidal action against MATIN (Matricaria inodora; [1]): 100; herbicidal action MATIN (Matricaria inodora; post-emergence, dosage 80 g/ha): 100% |
| CCS(=O)(=O)Cc1c(C(F)(F)F)ccc(C(=O)Nc2nnnn2C)c1Cl [Example 1-301] | 100 | 100 | 100 | 100 | 100 | 90 |  |

| SMILES | herbicidal activity ECHCG (Echinochloa crus-galli; dosage 320 g/ha) [%] | herbicidal activity ABUTH (Abutilon theophrasti) [%] | herbicidal action AVEFA (Avena fatua; Dosage 80 g/ha) | herbicidal action POLCO (Polygonum convolvulus; Dosage 80 g/ha) | herbicidal action VERPE (Veronica persica; Dosage 80 g/ha) | herbicidal action MATIN (Matricaria inodora; Dosage 80 g/ha) | further results |
| --- | --- | --- | --- | --- | --- | --- | --- |
| C=CCSCc1c(C(F)(F)F)ccc(C(=O)Nc2nnnn2C)c1Cl [Example 1-308] | 100 | 100 |  |  |  |  | herbicidal action AVEFA (Avena fatua; post-emergence, dosage 80 g/ha): 100%; herbicidal action POLCO (Polygonum convolvulus; post-emergence, dosage 80 g/ha): 90%; herbicidal action VERPE (Veronica persica; post-emergence, dosage 80 g/ha): 80%; herbicidal action MATIN (Matricaria inodora; post-emergence, dosage 80 g/ha): 100% |
| CSCc1c(C(F)(F)F)ccc(C(=O)Nc2nnnn2C)c1Br [Example 1-380] | 100 | 100 |  |  |  |  | herbicidal action AVEFA (Avena fatua; post-emergence, dosage 80 g/ha): 100%; herbicidal action POLCO (Polygonum convolvulus; post-emergence, dosage 80 g/ha): 90%; herbicidal action VERPE (Veronica persica; post-emergence, dosage 80 g/ha): 100%; herbicidal action MATIN (Matricaria inodora; post-emergence, dosage 80 g/ha): 90% |
| Cn1nnnc1NC(=O)c1ccc(C(F)(F)F)c(C[S+](C)[O-])c1Br (stereo not drawn) [Example 1-381] | 100 | 100 |  |  |  |  | herbicidal action AVEFA (Avena fatua; post-emergence, dosage 80 g/ha): 100%; herbicidal action POLCO (Polygonum convolvulus; post-emergence, dosage 80 g/ha): 80%; Herbicidal action against ECHCG (Echinochloa crus-galli; comparative experiment, 20 g of a.i./ha): 90; herbicidal action VERPE (Veronica persica; post-emergence, dosage 80 g/ha): 100%; herbicidal action MATIN (Matricaria inodora; post-emergence, dosage 80 g/ha): 90% |
| Cn1nnnc1NC(=O)c1ccc(C(F)(F)F)c(CS(C)(=O)=O)c1Br [Example 1-382, 2-bromo-3-[(methylsulfonyl)methyl]-N-(1-methyl-1H-tetrazol-5-yl)-4-(trifluoromethyl)benzamide] | 100 | 100 | 100 | 90 | 100 | 100 |  |
| Cn1nnnc1NC(=O)c1ccc(Cl)c(CS(C)(=O)=O)c1Cl [Example 1-561] | 100 | 100 | 90 |  | 100 | 100 |  |
| CCn1nnnc1NC(=O)c1ccc(S(C)(=O)=O)c(CS(C)(=O)=O)c1C [Example 2-39] |  |  |  |  | 100 | 80 | herbicidal action ECHCG (Echinochloa crus-galli; dosage 320 g/ha): 90% |
| CCn1nnnc1NC(=O)c1ccc(C(F)F)c(CSC)c1C [Example 2-107] | 100 | 100 | 80 | 90 | 100 | 90 |  |
| CCn1nnnc1NC(=O)c1ccc(C(F)(F)F)c(C[S+](C)[O-])c1OC (stereo not drawn) [Example 2-135] | 100 | 100 | 100 | 90 | 100 | 100 |  |
| CCn1nnnc1NC(=O)c1ccc(C(F)(F)F)c(CS(C)(=O)=O)c1OC [Example 2-136] | 100 | 100 | 100 |  | 100 | 100 |  |
| CCn1nnnc1NC(=O)c1ccc(C)c(CSC)c1Cl [Example 2-287] | 100 |  |  | 80 | 80 | 100 |  |
| CCn1nnnc1NC(=O)c1ccc(C(F)(F)F)c(CS(C)(=O)=O)c1Br [Example 2-382] | 100 | 100 |  | 80 | 100 | 100 |  |
| CCCn1nnnc1NC(=O)c1ccc(C(F)(F)F)c(CS(C)(=O)=O)c1OC [Example 3-136] | 100 | 100 |  | 80 | 100 |  |  |
| CCCn1nnnc1NC(=O)c1ccc(C(F)(F)F)c(CSC)c1Cl [Example 3-296] | 100 | 100 | 90 |  | 100 | 100 |  |
| CCCn1nnnc1NC(=O)c1ccc(C(F)F)c(C[S+]([O-])CC)c1Cl (stereo not drawn) [Example 3-324] | 100 | 100 | 100 | 100 |  |  |  |
| CCCn1nnnc1NC(=O)c1ccc(C(F)(F)F)c(CS(=O)(=O)CC)c1Br [Example 3-385] | 100 | 100 |  | 90 | 100 | 90 |  |
